Columns and labels:
Type in all cases: biochemical
[1] = Active-oxygen eliminating activity of superoxide dismutase and antioxidants in water or trehalose solution before/after storage (NBT test); conditions: for Activity (unit/mg antioxidant) Before storage: in trehalose solution, trehalose concentration 45%; for Activity (unit/mg antioxidant) After storage: light-shielded
Method: (§1) Fresh raw carrots were disrupted by a mixer, and 10% of either of saccharides, d.s.b., was added to the mixture and dissolved therein. The solution was dried under reduced pressures at 40° C. for two days, dried in vacuo at the same temperature for 24 hours, and pulverized by a mixer into a powdery carrot composition. The saccharides used were commercialized reagents of glucose, mannitol, sorbitol, maltose, sucrose, trehalose, and pullulan. An about 100 g of the composition was placed and sealed in a 500-ml polystyrene container, and stored at 40° C. for seven days. The active-oxygen eliminating activity of the composition before and after the storage were compared. The assay for the active-oxygen eliminating activity followed the nitroblue tetrazolium test by Toshio IMANARI et at in Igakuno Ayumi, Vol. 101, pp. 496–497 (1977); the level of superoxide, formed in a xanthine-xanthine oxidase system, was assayed by quantifying calorimetrically the content of formazan formed by reducing NBT. As a control, refined water was used as a test solution. One unit activity of active-oxygen eliminating activity is defined as that inhibits 50% formazan formation as compared with the control. […] The reduction inhibitory activity of trehalose was strongly higher than that of glucose as the constituent saccharide for trehalose, and that of maltose as a disaccharide consisting of two glucose units similar to trehalose. Thus trehalose is suitably used as an effective ingredient for a reduction inhibitory agent for active-oxygen eliminating activity.
In one milliliter of a 45 w/v % trehalose solution was dissolved five micrograms of superoxide dismutase from a horseradish-commercialized by Sigma Chemical Co., St. Louise, USA, 10 mg α-glucosyl hesperidin commercialized by Hayashibara Biochemical Laboratories, Inc., Okayama, Japan, 10 mg α-glucosyl rutin commercialized by Hayashibara Biochemical Laboratories, Inc., Okayama, Japan, 250 μg gallic acid commercialized by Wako Pure Chemical Industries, Ltd., Tokyo, Japan, or 50 μg catechin to obtain a liquid composition. Each of the compositions was placed in a glass test tube, sealed with a rubber cap, and stored under light-shielded conditions. As a control, water was used in place of the trehalose solution. […] Mere mixing of a powdery crystalline trehalose hydrate and either of the powdery antioxidants into a powdery mixture, almost no change of the active-oxygen eliminating activity was observed when subjected to storage test similarly as above.

[2] = Influence of trehalose concentration on active-oxygen eliminating activity of powdery carrot composition before/after storage (NBT test); conditions: for Activity (unit/g) After storage / Percentage of residual activity (%): 40° C. for seven days; for Activity (unit/g) Before storage: powdery carrot composition
Method: as §1
Similarly as in Experiment 1, 0–20% of trehalose, d.s.b., was mixed with and dissolved in a disrupted carrot. The resulting each mixture was dried in vacuo at 40° C. for 24 hours, and pulverized into a powdery carrot composition. Similarly as in Experiment 1, each powdery composition was placed and sealed in a polystyrene container, and stored at 40° C. for seven days for evaluating the reduction inhibitory activity for active-oxygen eliminating activity. […] Based on the data from Table 2, at least of about one percent, preferably, at least of about five percent, and more preferably, at least of about 20% of trehalose, d.s.b., exerted a desired effective reducing inhibitory activity for active-oxygen eliminating activity.

[3] = Influence of saccharides on active-oxygen eliminating activity of powdery carrot composition before/after storage (NBT test); conditions: compared among the saccharides tested, 40° C. seven days
Method: Fresh raw carrots were disrupted by a mixer, and 10% of either of saccharides, d.s.b., was added to the mixture and dissolved therein. The solution was dried under reduced pressures at 40° C. for two days, dried in vacuo at the same temperature for 24 hours, and pulverized by a mixer into a powdery carrot composition. The saccharides used were commercialized reagents of glucose, mannitol, sorbitol, maltose, sucrose, trehalose, and pullulan. An about 100 g of the composition was placed and sealed in a 500-ml polystyrene container, and stored at 40° C. for seven days. The active-oxygen eliminating activity of the composition before and after the storage were compared. The assay for the active-oxygen eliminating activity followed the nitroblue tetrazolium test by Toshio IMANARI et at in Igakuno Ayumi, Vol. 101, pp. 496–497 (1977); the level of superoxide, formed in a xanthine-xanthine oxidase system, was assayed by quantifying calorimetrically the content of formazan formed by reducing NBT. As a control, refined water was used as a test solution. One unit activity of active-oxygen eliminating activity is defined as that inhibits 50% formazan formation as compared with the control. […]

[4] = trehalose 0%, stored 80° C. 5 days
[5] = trehalose 45%, stored 80° C. 5 days
[6] = 0.1% trehalose added to carrot (content 1.0% d.s.b.)
[7] = 0.5% trehalose added to carrot (content 4.9% d.s.b.)
[8] = 1.0% trehalose added to carrot (content 9.4% d.s.b.)
[9] = 2.5% trehalose added to carrot (content 20.7% d.s.b.)
[10] = 5.0% trehalose added to carrot (content 34.2% d.s.b.)
[11] = 10.0% trehalose added to carrot (content 51.1% d.s.b.)
[12] = 20.0% trehalose added to carrot (content 67.6% d.s.b.)
[13] = trehalose 45%, stored 25° C. 20 hours

O=C(O)c1cc(O)c(O)c(O)c1 [Gallic acid, gallic acid]
Activity (unit/mg antioxidant) Before storage [1]: 570 unit/mg antioxidant
Activity (unit/mg antioxidant) After storage [1, 4]: 390 unit/mg antioxidant
Residual activity (%) [1, 5]: 82%
Activity (unit/mg antioxidant) After storage [1, 5]: 470 unit/mg antioxidant

OC[C@H]1O[C@H](O[C@H]2O[C@H](CO)[C@@H](O)[C@H](O)[C@H]2O)[C@H](O)[C@@H](O)[C@@H]1O [Trehalose, α,α-trehalose]
Activity (unit/g) After storage [2, 6]: 400 unit/g
Percentage of residual activity (%) [2, 6]: 43%
Activity (unit/g) After storage [2, 7]: 460 unit/g
Percentage of residual activity (%) [2, 7]: 61%
Activity (unit/g) After storage [2, 8]: 480 unit/g
Percentage of residual activity (%) [2, 8]: 56%
Activity (unit/g) After storage [2, 9]: 460 unit/g
Activity (unit/g) After storage [2, 10]: 370 unit/g
Percentage of residual activity (%) [2, 10]: 62%
Activity (unit/g) After storage [2, 11]: 330 unit/g
Percentage of residual activity (%) [2, 11]: 83%
Activity (unit/g) After storage [2, 12]: 240 unit/g
Percentage of residual activity (%) [2, 12]: 63%
Activity (unit/g) Before storage [2, 6]: 930 unit/g
Activity (unit/g) Before storage [2, 7]: 750 unit/g
Activity (unit/g) Before storage [2, 8]: 860 unit/g
Activity (unit/g) Before storage [2, 9]: 700 unit/g
Activity (unit/g) Before storage [2, 10]: 600 unit/g
Activity (unit/g) Before storage [2, 11]: 400 unit/g
Activity (unit/g) Before storage [2, 12]: 380 unit/g
reduction inhibitory activity for active-oxygen eliminating activity (in words) [3]: strong effect

Superoxide dismutase
Activity (unit/mg antioxidant) Before storage [1]: 11,000 unit/mg antioxidant
Activity (unit/mg antioxidant) After storage ([1]; trehalose 0%, stored 60° C. 17 hours): 4,600 unit/mg antioxidant
Activity (unit/mg antioxidant) After storage ([1]; trehalose 45%, stored 60° C. 17 hours): 9,400 unit/mg antioxidant

catechin
Activity (unit/mg antioxidant) Before storage [1]: 380 unit/mg antioxidant
Activity (unit/mg antioxidant) After storage ([1]; trehalose 0%, stored 25° C. 20 hours): 2.2 unit/mg antioxidant
Residual activity (%) [1, 13]: 82%
Activity (unit/mg antioxidant) After storage [1, 13]: 310 unit/mg antioxidant

α-glucosyl hesperidin
Activity (unit/mg antioxidant) Before storage [1]: 3.6 unit/mg antioxidant
Activity (unit/mg antioxidant) After storage [1, 4]: 1.0 unit/mg antioxidant
Residual activity (%) [1, 5]: 67%
Activity (unit/mg antioxidant) After storage [1, 5]: 2.4 unit/mg antioxidant

α-glucosyl rutin
Activity (unit/mg antioxidant) After storage [1, 4]: 18 unit/mg antioxidant
Activity (unit/mg antioxidant) After storage [1, 5]: 22 unit/mg antioxidant
